Laboratory results from US20180282351A1, “Amorphous Ixazomib Citrate” (Mylan Laboratories Ltd, priority 2015, published 2018).

Experiment: Stability of Form M2 on storage, polymorph checked by PXRD
Assay type: physicochemical
Description: In one aspect, the present invention provides crystalline ixazomib citrate form M1. The ixazomib citrate forms of the present invention, including form M1, prepared by methods disclosed herein, may be characterized by PXRD. Therefore samples of each ixazomib citrate form (including amorphous, M1, M2, M3, and M4) were analyzed by PXRD on a BRUKER D-8 Discover powder diffractometer equipped with a goniometer of θ/2θ configuration and Lynx Eye detector. The Cu-anode X-ray tube was operated at 40 kV and 30 mA. The experiments were conducted over the 2θ range of 2.0°-50.0°, 0.030° step size, and 0.4 seconds step time.

CC(C)C[C@H](NC(=O)CNC(=O)c1cc(Cl)ccc1Cl)B1OC(=O)C(CC(=O)O)(CC(=O)O)O1 [Form M2, 2,2′-{2-[(1R)-1-({[(2,5-dichlorobenzoyl)amino]acetyl}amino)-3-methylbutyl]-5-oxo-1,3,2-dioxaborolane-4,4-diyl}diacetic acid]
Long-term physical stability (change in PXRD pattern) (1, 3 and 6 months stored at 5±3° C., at 25° C./60% and at 40° C./75% relative humidity (RH)): does not show any change in PXRD pattern | Polymorph by PXRD (at 5 ± 3° C., 1 month): Form M2 | Polymorph by PXRD (at 5 ± 3° C., 3 months): Form M2 | Polymorph by PXRD (at 5 ± 3° C., 6 months): Form M2 | Polymorph by PXRD (at 5 ± 3° C., Initial): Form M2 | Polymorph by PXRD (at 25° C./60% RH, 1 month): Form M2 | Polymorph by PXRD (at 25° C./60% RH, 3 months): Form M2 | Polymorph by PXRD (at 25° C./60% RH, 6 months): Form M2 | Polymorph by PXRD (at 25° C./60% RH, Initial): Form M2 | Polymorph by PXRD (at 40° C./75% RH, 1 month): Form M2 | Polymorph by PXRD (at 40° C./75% RH, 3 months): Form M2 | Polymorph by PXRD (at 40° C./75% RH, 6 months): Form M2 | Polymorph by PXRD (at 40° C./75% RH, Initial): Form M2
